What was measured:
[1] = target: T1, A2AR in A1R-A2AR heteromers (Homo sapiens, UniProt P29274); test: biochemical
A2AR [2] = target: T2, A2AR (Homo sapiens, UniProt P29274); test: biochemical
[3] = target: T3, A2AR in A2AR-D2R heteromers (Homo sapiens, UniProt P29274); test: biochemical
[4] = target: T1, A2AR in A1R-A2AR heteromers; conditions: A2AR-A1R cells, [^3H]ZM-241385 2 nM
A2AR [5] = target: T2, A2AR; conditions: A2AR cells; [^3H]ZM-241385 2 nM
[6] = target: T3, A2AR in A2AR-D2R heteromers; conditions: for Reduction of the affinity of A2AR by co-transfection with D2R: A2AR-D2R cells versus A2AR cells; for DCB (dimer cooperativity index): A2AR-D2R cells, A2AR, [^3H]ZM-241385 2 nM
rats [7] = test: Locomotor activity in habituated rats; format: in vivo, rat; conditions: for Locomotor activation: 1 mg/kg i.p.; for Dose producing significant locomotor activation: i.p., 90 min after administration, habituated rats
Description: (§1) Male Sprague-Dawley rats (Charles River Laboratories, Wilmington, MA) weighting between 300–350 g were used in these experiments. Rats were housed 2 per cage and they maintained at a temperature of 22±2°C on a regular 12-h light–dark cycle. Food and water were available ad libitum.
(§2) All drugs but MSX-3 (Sigma-Aldrich, St. Louis, MI) were provided by CHDI Foundation Inc. (Los Angeles, CA, US). SCH-420814 was administered subcutaneously (s.c.) at 1 ml/kg and the other drugs were administered via intraperitonal (i.p.) injection at volume of 2 ml/kg.
Locomotor activity was measured by placing the animals individually in motility soundproof chambers (50×50 centimeters; Med Associates Inc., VT). Locomotion was measured by counting the number of breaks in the infrared beams of the chambers. The animals were placed in individual acrylic chambers at noon on the day of testing. A lamp inside each chamber remained lit during this period. Following 90 min of habituation, the rats were injected i.p. with different doses of each compound or vehicle and locomotor activity was recorded for 90 min after the drug or vehicle administration. All the animals were tested only once. The effect of different doses of the A2AR antagonists on locomotor activity were analyzed using a one-way analysis of variance (ANOVA), followed by Newman-Keuls' post-hoc test.

rats [8] = test: Motor output induced by cortical electrical stimulation (EMG recording, power correlation coefficient PCC); format: in vivo, rat; conditions: for Dose significantly reducing PCC: i.p., PCC 40 min after administration
Description: as §1, §2
Rats were anesthetized with 3 ml/kg of Equithesin (4.44 g of chloral hydrate, 0.972 g of Na pentobarbital, 2.124 g of MgSO4, 44.4 ml of propylene glycol, 12 ml of ethanol and distilled H2O up to 100 ml of final solution; NIDA Pharmacy, Baltimore, MD) and implanted unilaterally with bipolar stainless steel electrodes, 0.15 mm in diameter (Plastics One, Roanoke, VA), into the orofacial area of the lateral agranular motor cortex (3 mm anterior, 3 and 4 mm lateral, and 4.2 mm below bregma). The electrodes and a head holder (connected to a swivel during stimulation) were fixed on the skull with stainless steel screws and dental acrylic resin. For the experiments with electromyographic (EMG) recording, electrodes were also implanted in mastication muscles (during the same surgical procedure). Two 5 mm-long incisions were made in the skin on the upper and lower jaw areas to expose the masseter and the lateral pterygoid muscles. […] The bare tips of the electrodes were then held in contact with the masseter and the lateral pterygoid muscles and the skin was closed with surgical staples. The other end of the recording electrodes was encased in a molded plastic pedestal with a round threaded post which was attached to an electrical swivel and then to a differential amplifier (Grass LP511, Grass Instruments, Warwick, RI). The pedestal was secured to the skull with dental cement together with the stimulation electrodes. For the in vivo microdialysis experiments, concentric microdialysis probes with 2-mm long dialysis membranes (Eicom Corp., Tokio, Japan) were implanted respectively into the striatum ipsilateral to the stimulation electrodes (0.0 mm AP, 4.5 ML and 7.0 mm DV).
Rats were placed in individual bowl chambers. Both stimulation electrodes and recording electrodes were attached using flexible shielded cabling to a four channel electrical swivel. Stimulation electrodes were connected to two-coupled constant current isolation units (PSIU6X, Grass Instruments West Warwick, RI) driven by an electrical stimulator (Grass S88X; Grass Instruments). The recording electrodes were connected to a differential amplifier (Grass LP511, West Warwick, RI). This configuration allows the rat to move freely while the stimulation and EMG recordings are taking place. After 60 min of habituation, biphasic current pulse trains (pulse of 0.1 ms at 120–200 µA; 100 Hz, 160 ms trains repeating once per 2 seconds) were delivered. The current intensity was adjusted to the threshold level, defined as the minimal level of current intensity allowing at least 95% of the stimulation pulses to elicit a positive EMG response. Positive EMG response was defined as at least 100% increase of the peak to peak amplitude respect to the background tonic EMG activity lasting more than 100 ms or at least 70% increase in the power of the EMG signal respect to the baseline. Positive EMG responses always matched observable small jaw movements. […]

[9] = tested on: striatal glutamate release induced by cortical electrical stimulation; test: In vivo microdialysis with cortical electrical stimulation; set-up: species or system rat; conditions: 1 mg/kg i.p.
Description: as §1
Rats were anesthetized with 3 ml/kg of Equithesin (4.44 g of chloral hydrate, 0.972 g of Na pentobarbital, 2.124 g of MgSO4, 44.4 ml of propylene glycol, 12 ml of ethanol and distilled H2O up to 100 ml of final solution; NIDA Pharmacy, Baltimore, MD) and implanted unilaterally with bipolar stainless steel electrodes, 0.15 mm in diameter (Plastics One, Roanoke, VA), into the orofacial area of the lateral agranular motor cortex (3 mm anterior, 3 and 4 mm lateral, and 4.2 mm below bregma). The electrodes and a head holder (connected to a swivel during stimulation) were fixed on the skull with stainless steel screws and dental acrylic resin. […]
The experiments were performed on freely moving rats 24 h after probe implantation. […] Glutamate content was measured by reverse-phase HPLC coupled to a flourimetric detector (Shimadzu Inc., Tokio, Japan). Glutamate values were transformed as percentage of the mean of the three values before the drug or vehicle injection and transformed values were statistically analyzed.

[10] = tested on: striatal glutamate release induced by cortical electrical stimulation; set-up: method as in PMID 19936569; conditions: intrastriatal perfusion; previous study; ref [5]; cited from earlier work
[11] = target: A1R in A1R-A2AR heteromers (Homo sapiens, UniProt P30542); conditions: A2AR-A1R cells, [^3H]DPCPX 2 nM
Chain of A1R in A1R-A2AR heteromers (P29274 whole entry): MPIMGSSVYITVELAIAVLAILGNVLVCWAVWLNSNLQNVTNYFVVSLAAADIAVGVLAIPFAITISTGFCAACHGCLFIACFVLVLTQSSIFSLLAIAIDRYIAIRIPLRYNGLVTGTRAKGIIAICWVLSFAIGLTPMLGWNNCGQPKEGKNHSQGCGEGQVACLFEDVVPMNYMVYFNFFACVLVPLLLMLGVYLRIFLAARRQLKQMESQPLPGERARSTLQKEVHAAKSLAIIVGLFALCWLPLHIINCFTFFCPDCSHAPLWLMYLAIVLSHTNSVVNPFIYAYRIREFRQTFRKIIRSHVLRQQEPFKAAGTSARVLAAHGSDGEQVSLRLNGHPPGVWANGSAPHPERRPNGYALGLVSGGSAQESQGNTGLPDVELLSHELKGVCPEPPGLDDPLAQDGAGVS
Chain of A1R in A1R-A2AR heteromers (P30542 whole entry): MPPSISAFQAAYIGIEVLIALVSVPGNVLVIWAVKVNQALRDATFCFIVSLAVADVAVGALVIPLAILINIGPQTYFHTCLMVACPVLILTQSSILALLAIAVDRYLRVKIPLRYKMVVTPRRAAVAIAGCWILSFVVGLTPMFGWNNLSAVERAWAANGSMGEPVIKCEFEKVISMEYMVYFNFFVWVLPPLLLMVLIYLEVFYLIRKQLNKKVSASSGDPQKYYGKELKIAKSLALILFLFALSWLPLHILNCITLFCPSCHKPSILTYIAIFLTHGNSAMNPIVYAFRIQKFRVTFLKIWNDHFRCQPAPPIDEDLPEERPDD

T2 sequence (P29274 whole entry): as the sequence (P29274 whole entry) above
T3 sequence (P29274 whole entry): as above
T3 sequence (P14416 whole entry partner): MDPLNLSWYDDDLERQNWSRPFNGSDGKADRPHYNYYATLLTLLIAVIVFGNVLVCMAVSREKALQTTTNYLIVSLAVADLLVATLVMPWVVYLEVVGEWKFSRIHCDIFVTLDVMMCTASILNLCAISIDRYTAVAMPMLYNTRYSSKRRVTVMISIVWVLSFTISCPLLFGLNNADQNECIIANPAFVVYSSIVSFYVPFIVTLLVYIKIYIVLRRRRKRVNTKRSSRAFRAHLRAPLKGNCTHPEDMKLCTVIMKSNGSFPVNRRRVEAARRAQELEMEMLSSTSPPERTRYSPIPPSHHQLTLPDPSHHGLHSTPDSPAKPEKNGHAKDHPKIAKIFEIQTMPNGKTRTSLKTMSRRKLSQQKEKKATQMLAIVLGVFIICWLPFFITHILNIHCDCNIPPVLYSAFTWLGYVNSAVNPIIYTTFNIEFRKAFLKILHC
T1 sequence (P29274 whole entry): as the sequence (P29274 whole entry) above
T1 sequence (P30542 whole entry partner): as the sequence (P30542 whole entry) above

Question: For `C#CCn1c(=O)c2c(nc(/C=C/c3cccc(OC)c3)n2C)n(CCCO)c1=O` [MSX-2, (E)-3-(3-hydroxypropyl)-8-[2-(3-methoxyphenyl)vinyl]-7-methyl-1-prop-2-ynyl-3,7-dihydropurine-2,6-dione], which Kd [1] is on record?
Answer: Its Kd is 4.2 ± 0.3 nM.

Question: What about the Kd (A2AR [2]) of the same molecule?
Answer: Its Kd is 3.2 ± 0.2 nM.

Question: What about the Kd [3] of the same molecule?
Answer: The Kd was 7 ± 2 nM.

Question: What about the “DCB (dimer cooperativity index)” value [4] of the same molecule?
Answer: The value was 0.

Question: And the “DCB (dimer cooperativity index)” value (A2AR [5])?
Answer: The value was 0.

Question: And the “Reduction of the affinity of A2AR by co-transfection with D2R” value [6]?
Answer: The value was “two to about nine”.

Question: And the “DCB (dimer cooperativity index)” value [6]?
Answer: Its value is 0.

Question: With `CCn1c(=O)c2c(nc(/C=C/c3ccc(OC)c(OC)c3)n2C)n(CC)c1=O` [KW-6002, (E)-1,3-diethyl-8-(3,4-dimethoxystyryl)-7-methyl-3,7-dihydro-1H-purine-2,6-dione] as the molecule, how does the Locomotor activation (rats [7]) read?
Answer: Its Locomotor activation is “pronounced locomotor activation”.

Question: What about the “Dose producing significant locomotor activation” value (rats [7]) of the same molecule?
Answer: The value was 0.3 mg/kg.

Question: What about the “Reduction of PCC” value (rats [8]; 1 mg/kg i.p.) of the same molecule?
Answer: Its value is “did not reduce PCC”.

Question: What about the “Dose significantly reducing PCC” value (rats [8]) of the same molecule?
Answer: The value was greater than 10 mg/kg.

Question: What about the “Effect on striatal glutamate release induced by cortical stimulation” value [9] of the same molecule?
Answer: The value was “did not modify”.

Question: For `C#CCn1c(=O)c2c(nc(/C=C/c3cccc(OC)c3)n2C)n(CCCOP(=O)(O)O)c1=O.[Na].[Na]` [MSX-3, (E)-phosphoric acid mono-(3-{8-[2-(3-methoxyphenyl)vinyl]-7-methyl-2,6-dioxo-1-prop-2-ynyl-1,2,6,7-tetrahydropurin-3-yl}propyl) ester disodium salt], which “Effect on striatal glutamate release induced by cortical electrical stimulation” value [10] is on record?
Answer: The value was “almost completely counteracted”.

Question: And the “Reduction of PCC” value (rats [8]; dose-response, Fig. 2)?
Answer: The value was “very effective reduction of PCC”.

Question: Which results are given for `COc1ccc(CCCn2ncc3c2nc(N)n2nc(-c4ccco4)nc32)cc1` [SCH-442416, 2-(2-Furanyl)-7-[3-(4-methoxyphenyl)propyl]-7H-pyrazolo[4,3-e][1], [2], [4]triazolo[1,5-c]pyrimidin-5-amine]?
Answer: Locomotor activation (rats [7]): did not induce locomotor activation; Dose producing significant locomotor activation (rats [7]): higher than 3 mg/kg; Reduction of PCC (rats [8]; 1 mg/kg i.p.): strongly reduced PCC; Dose significantly reducing PCC (rats [8]): 0.1 mg/kg; Effect on striatal glutamate release induced by cortical stimulation [9]: significantly counteracted

Question: What does the source list for `COCCOc1ccc(N2CCN(CCn3ncc4c3nc(N)n3nc(-c5ccco5)nc43)CC2)cc1` [SCH-420814, 2-(2-furanyl)-7-[2-[4-[4-(2-methoxyethoxy)phenyl]-1-piperazinyl]ethyl]-7H-pyrazolo[4,3-e][1], [2], [4]-triazolo[1,5-c]pyrimidin-5-amine]?
Answer: Kd [1]: 1.1 ± 0.1 nM; Kd (A2AR [2]): 0.5 ± 0.1 nM; Kd [3]: 2.7 ± 0.8 nM; DCB (dimer cooperativity index) [4]: 0; DCB (dimer cooperativity index) (A2AR [5]): 0; Reduction of the affinity of A2AR by co-transfection with D2R [6]: two to about nine; DCB (dimer cooperativity index) [6]: 0

Question: For `C[C@H](Cc1ccccc1)Nc1ncnc2c1ncn2[C@@H]1O[C@H](CO)[C@@H](O)[C@H]1O` [R-PIA], which “B50 (concentration providing half saturation)” value [11] is on record?
Answer: Its value is 30 ± 10 nM.

— publication PMC3019225, “Striatal Pre- and Postsynaptic Profile of Adenosine A2A Receptor Antagonists” (PLoS ONE, 2011)
